Consider 34 compounds from patent US8829014B2, “Thiazole and thiophene analogues, and their use in treating autoimmune diseases and cancers” (Board of Supervisors of Louisiana State University and …, priority 2006, dated 2014).

The subject of the first test is carageenan-induced edema. The test is described as follows: Carrageenan-induced rat paw edema test (anti-inflammatory activity). Type of test: in vivo, Sprague-Dawley rats. The note with it: Rattus norvegicus, po, 3 h, rat paw edema, 50 mg/kg, reading 3 hours after carrageenan; [(Control−Test)/Control]×100%; read-out: % Protection P. How it is done:
Sprague-Dawley rats, male and female, 150-250 g will be used in an edema test. Rats will be deprived of food but not water for 18 hours prior to the experiment. The test compounds will be administered with a blunt-tipped needle orally, 50 mg/kg, as a suspension in 0.1% sodium CMC (carboxymethylcellulose) vehicle. Alternatively, the test compounds will be injected intravenously, subcutaneously, or intraperitoneally. One hour later, 0.1 ml of a 1% carrageenan solution in saline will be injected in the sub-plantar region of the right hind paw of each rat. […] The reading will be repeated 3 hours later. The displacement readings give a measure of carageenan-induced edema. Any reduction in carageenan-induced edema with a test compound, as compared to saline control, is a measure of the anti-inflammatory activity of the test compound. The percentage protection at 50-mg/kg doses was calculated according to the following formula: % Protection=[(Control−Test)/Control]×100%.
Following treatment, the media from the VSMC and HUVEC incubations were removed, and the amount of lactate dehydrogenase (LDH) released into the medium was determined with a commercial kit and expressed as a % increase over vehicle-treated cells. HPT toxicity was determined by the ethidium homodimer (EthHD) uptake assay. […] The lead compounds were also tested in two pairs of cell lines from the skin or prostate, one tumorigenic and one non-tumorigenic, to test for differing toxicity or heightened sensitivity in the tumorigenic lines. The cells were treated for 48 h with vehicle (0.1% DMSO) or 10 μM of each drug candidate, and the viability of the cells was determined by the MTT assay, expressed as a % decrease in viability compared to vehicle-treated cells. The in vivo inflammation model measured the % inhibition of rat paw edema induced by carageenan injection.
On to `Cc1ccccc1-n1c(-c2cc(-c3ccc(Cl)cc3)c(N3CCOCC3)s2)nc2ccccc2c1=O` [Example 279, 2-[4-(4-Chloro-phenyl)-5-morpholin-4-yl-thiophen-2-yl]-3-o-tolyl-3H-quinazolin-4-one], for which the inhibition in vivo at 50 mg/kg is 0%.

For the compound `Cc1ccccc1-n1c(-c2cc(-c3ccc(S(C)(=O)=O)cc3)c(N3CCOCC3)s2)nc2ccccc2c1=O` [Example 281, 2-[4-(4-Methanesulfonylphenyl)-5-morpholin-4-yl-thiophen-2-yl]-3-o-tolyl-3H-quinazolin-4-one], the inhibition in vivo at 50 mg/kg turned out to be 50%.

Regarding `Cc1cccc(-n2c(-c3cc(-c4ccc(S(C)(=O)=O)cc4)c(N4CCOCC4)s3)nc3ccccc3c2=O)c1` [Example 287, 2-[4-(4-Methanesulfonyl-phenyl)-5-morpholin-4-yl-thiophen-2-yl]-3-m-tolyl-3H-quinazolin-4-one], the inhibition in vivo at 50 mg/kg is 51%.

In the case of `CSc1ccc(-c2cc(-c3nc4ccccc4c(=O)n3-c3cccc(C)c3)sc2N2CCOCC2)cc1` [Example 288, 2-[4-(4-Methylsulfanyl-phenyl)-5-morpholin-4-yl-thiophen-2-yl]-3-m-tolyl-3H-quinazolin-4-one], the inhibition in vivo at 50 mg/kg was 31%.

With `Cc1ccc(-n2c(-c3cc(-c4ccccc4)c(N4CCOCC4)s3)nc3ccccc3c2=O)cc1` [Example 290, 2-(5-Morpholin-4-yl-4-phenyl-thiophene-2-yl)-3-p-tolyl-3H-quinazolin-4-one], the inhibition in vivo at 50 mg/kg was 48%.

On to `Cc1ccc(-n2c(-c3cc(-c4ccc(Cl)cc4)c(N4CCOCC4)s3)nc3ccccc3c2=O)cc1` [Example 291, 2-[4-(4-Chlorophenyl)-5-morpholin-4-yl-thiophen-2-yl]-3-p-tolyl-3H-quinazolin-4-one], for which the inhibition in vivo at 50 mg/kg stood at 53%.

On to `Cc1ccc(-n2c(-c3cc(-c4ccc(S(C)(=O)=O)cc4)c(N4CCOCC4)s3)nc3ccccc3c2=O)cc1` [Example 292, 2-[4-(4-Methanesulfonyl-phenyl)-5-morpholin-4-yl-thiophen-2-yl]-3-p-tolyl-3H-quinazolin-4-one], for which the inhibition in vivo at 50 mg/kg was found to be 31%.

As to `COc1ccccc1-n1c(-c2cc(-c3ccccc3)c(N3CCOCC3)s2)nc2ccccc2c1=O` [Example 294, 3-(2-Methoxy-phenyl)-2-(5-morpholin-4-yl-4-phenyl-thiophen-2-yl)-3H-quinazolin-4-one], the inhibition in vivo at 50 mg/kg was found to be 34%.

For the compound `O=c1c2ccccc2nc(-c2cc(-c3ccccc3)c(N3CCOCC3)s2)n1-c1ccccc1Cl` [Example 304, 3-(2-Chlorophenyl)-2-(5-morpholin-4-yl-4-phenyl-thiophen-2-yl)-3H-quinazolin-4-one], the inhibition in vivo at 50 mg/kg is 37%.

Take `O=c1c2ccccc2nc(-c2cc(-c3ccc(Cl)cc3)c(N3CCOCC3)s2)n1-c1ccccc1Cl` [Example 305, 2-[4-(4-Chlorophenyl)-5-morpholin-4-yl-thiophene-2-yl]-3-(2-chlorophenyl)-3H-quinazolin-4-one]: the inhibition in vivo at 50 mg/kg turned out to be 40%.

Regarding `CS(=O)(=O)c1ccc(-c2cc(-c3nc4ccccc4c(=O)n3-c3ccccc3Cl)sc2N2CCOCC2)cc1` [Example 307, 2-[4-(4-Methanesulphonyl-phenyl)-5-morpholin-4-yl-thiophen-2-yl]-3-(2-chloro-phenyl)-3H-quinazolin-4-one], the inhibition in vivo at 50 mg/kg came out at 31%.

Regarding `CN1CCN(c2sc(-c3nc4ccccc4c(=O)n3-c3ccc(Cl)cc3)cc2-c2ccc(S(C)(=O)=O)cc2)CC1` [Example 318, 3-(4-Chlorophenyl)-2-[4-(4-methanesulfonyl-phenyl)-5-(4-methyl-piperazine-1-yl)-thiophen-2-yl]-3H-quinazolin-4-one], the inhibition in vivo at 50 mg/kg came to 21%.

For `Nc1nc(Nc2ccccc2)sc1C(=O)c1ccc(Cl)cc1` [Example 323, (4-Amino-2-phenylamino-thiazol-5-yl)-(4-chloro-phenyl)-methanone], the inhibition in vivo at 50 mg/kg was found to be 43%.

For `Nc1nc(Nc2ccccc2)sc1C(=O)c1ccc(Cl)cc1Cl` [Example 324, (4-Amino-2-phenylamino-thiazol-5-yl)-(2,4-dichloro-phenyl)-methanone], the inhibition in vivo at 50 mg/kg turned out to be 55%.

Take `CS(=O)(=O)c1ccc(C(=O)c2sc(Nc3ccccc3)nc2N)cc1` [Example 325, (4-Amino-2-phenylamino-thiazol-5-yl)-(4-methanesulfonyl-phenyl)-methanone]: the inhibition in vivo at 50 mg/kg worked out at 12%.

Turning to `CC(=O)Nc1ccc(C(=O)c2sc(Nc3ccccc3)nc2N)cc1` [Example 326, N-[4-(4-Amino-2-phenylamino-thiazole-5-carbonyl)-phenyl]-acetamide], the inhibition in vivo at 50 mg/kg was found to be 34%.

Take `Nc1nc(Nc2ccccc2)sc1C(=O)c1cccnc1` [Example 327, (4-Amino-2-phenylamino-thiazol-5-yl)-pyridin-3-yl-methanone]: the inhibition in vivo at 50 mg/kg is 32%.

On to `Nc1nc(Nc2ccccc2)sc1C(=O)c1ccncc1` [Example 328, (4-Amino-2-phenylamino-thiazol-5-yl)-pyridin-4-yl-methanone], for which the inhibition in vivo at 50 mg/kg worked out at 76%.

Regarding `Nc1nc(Nc2ccccc2)sc1C(=O)c1ccccn1` [Example 329, (4-Amino-2-phenylamino-thiazol-5-yl)-pyridin-2-yl-methanone], the inhibition in vivo at 50 mg/kg is 54%.

As for `COc1c(C)cnc(-c2sc(Nc3ccccc3)nc2N)c1C` [Example 330, 5-(4-Methoxy-3,5-dimethyl-pyridin-2-yl)-N2-phenyl-thiazole-2,4-diamine], the inhibition in vivo at 50 mg/kg was determined as 24%.

As for `Nc1nc(Nc2ccc(Cl)cc2)sc1C(=O)c1ccc(Cl)cc1Cl` [Example 335, [4-Amino-2-(4-chloro-phenylamino)-thiazol-5-yl]-(2,4-dichloro-phenyl)-methanone], the inhibition in vivo at 50 mg/kg stood at 30.3%.

As to `CS(=O)(=O)c1ccc(C(=O)c2sc(Nc3ccc(Cl)cc3)nc2N)cc1` [Example 336, [4-Amino-2-(4-chloro-phenylamino)-thiazol-5-yl]-(4-methanesulfonyl-phenyl)-methanone], the inhibition in vivo at 50 mg/kg was determined as 28.3%.

For the compound `Nc1nc(Nc2ccc(Cl)cc2)sc1C(=O)c1ccncc1` [Example 339, [4-Amino-2-(4-chloro-phenylamino)-thiazol-5-yl]-pyridin-4-yl-methanone], the inhibition in vivo at 50 mg/kg was found to be 12%.

On to `Cc1c(OCC(F)(F)F)ccnc1-c1sc(Nc2ccc(Cl)cc2)nc1N` [Example 342, (N2-(4-Chloro-phenyl)-5-[3-Methyl-4-(2,2,2-trifluoro-ethoxy)-pyridin-2-yl]-thiazole-2,4-diamine)], for which the inhibition in vivo at 50 mg/kg was 76%.

Consider `COc1ccc(Nc2nc(N)c(C(=O)c3ccc(OC)cc3)s2)cc1` [Example 343, ([4-Amino-2-(4-methoxy-phenylamino)-thiazol-5-yl]-(4-methoxy-phenyl)-methanone)], for which the inhibition in vivo at 50 mg/kg was determined as 54%.

As for `COc1ccc(Nc2nc(N)c(C(=O)c3ccc(Cl)cc3)s2)cc1` [Example 345, ([4-Amino-2-(4-methoxy-phenylamino)-thiazol-5-yl]-(4-chloro-phenyl)-methanone)], the inhibition in vivo at 50 mg/kg is 34.6%.

`COc1ccc(Nc2nc(N)c(C(=O)c3ccc(S(C)(=O)=O)cc3)s2)cc1` [Example 347, ([4-Amino-2-(4-methoxy-phenylamino)-thiazol-5-yl]-(4-methanesulfonyl-phenyl)-methanone)]: the inhibition in vivo at 50 mg/kg was determined as 30.3%.

For the compound `COc1ccc(Nc2nc(N)c(C(=O)c3ccc(NC(C)=O)cc3)s2)cc1` [Example 348, (N-{4-[4-Amino-2-(4-methoxy-phenylamino)-thiazole-5-carbonyl]-phenyl}-acetamide)], the inhibition in vivo at 50 mg/kg amounted to 28.3%.

Regarding `COc1ccc(Nc2nc(N)c(C(=O)c3ccncc3)s2)cc1` [Example 350, ([4-Amino-2-(4-methoxy-phenylamino)-thiazol-5-yl]-pyridin-4-yl-methanone)], the inhibition in vivo at 50 mg/kg was 25.8%.

As for `COc1ccc(Nc2nc(N)c(-c3ncc(C)c(OC)c3C)s2)cc1` [Example 352, (5-(4-Methoxy-3,5-dimethyl-pyridin-2-yl)-N2-(4-methoxy-phenyl)-thiazole-2,4-diamine)], the inhibition in vivo at 50 mg/kg amounted to 23%.

Still in this test, the particulars now being: rat paw edema, 50 mg/kg, reading 3 hours after carrageenan; [(Control−Test)/Control]×100%.
Regarding `Cc1ccccc1-n1c(-c2cc(-c3ccccc3)c(N3CCOCC3)s2)nc2ccccc2c1=O` [Example 278, 2-(5-Morpholin-4-yl-4-phenyl-thiophene-2-yl)-3-0-tolyl-3H-quinazolin-4-one], the “% Protection P” value is reported as 37%.

Regarding `Cc1ccc(C(=O)c2sc(Nc3ccccc3)nc2N)cc1` [Example 322, 4-Amino-(2-phenylamino-thiazol-5-yl)-p-tolyl-methanone], the “% Protection P” value is reported as 23.98%.

`COc1c(C)cnc(-c2sc(Nc3ccc(Cl)cc3)nc2N)c1C` [Example 341]: the “% Protection P” value turned out to be 32%.

The test is the same for the next values; noted with them: rat paw edema, 50 mg/kg, reading 3 hours after carrageenan; [(Control−Test)/Control]×100%; 50 mg/kg.
For `COc1ccc(C(=O)c2sc(Nc3ccccc3)nc2N)cc1` [Example 321, 4-Amino-(2-phenylamino-thiazol-5-yl)-(4-methoxy-phenyl)-methanone], the “% Protection P” value was found to be 12.25%.
